Results on 5 molecules are retold here after patent publication US11524942B2, “Metabolites of [3-(4-{2-butyl-1-[4-(4-chloro-phenoxy)-phenyl]-1H-imidazol-4 yl}-phenoxy)-propyl]-diethyl-amine” (vTv Therapeutics LLC, priority 2018, dated 2022).

Sequence of human sRAGE (the soluble extracellular domain of the human receptor for advanced glycation endproducts) (Q15109 23-342): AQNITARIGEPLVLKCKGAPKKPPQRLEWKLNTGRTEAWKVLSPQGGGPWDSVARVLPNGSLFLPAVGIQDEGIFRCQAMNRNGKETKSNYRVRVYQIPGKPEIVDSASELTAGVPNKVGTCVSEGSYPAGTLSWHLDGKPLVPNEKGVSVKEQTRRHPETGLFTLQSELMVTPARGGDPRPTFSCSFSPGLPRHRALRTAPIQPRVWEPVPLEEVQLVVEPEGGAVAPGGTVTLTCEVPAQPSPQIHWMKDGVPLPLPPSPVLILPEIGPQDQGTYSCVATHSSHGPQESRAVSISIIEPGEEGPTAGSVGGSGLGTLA

The test concerns the target human sRAGE (the soluble extracellular domain of the human receptor for advanced glycation endproducts) (Homo sapiens (Human), UniProt Q15109). Briefly: Microscale thermophoresis binding affinity to recombinant human sRAGE. The settings on record: 25° C., pH 7.5. As to the method: Around 5 nM sRAGE was subsequently added to compounds at concentrations from 600 nM to 20 pM and incubated for 5 minutes at 25° C. in buffer containing 25 mM Hepes (pH 7.5), 5 mM CaCl2), 5 mM MgCl2, 50 mM NaCl, 0.05% Tween20 and 1% DMSO before proceeding to microscale thermophoresis.
The raw thermophoresis data and average Kds were generated according to manufacturer's protocol using the Microscale Thermophoresis System analysis software.
Turning to `CCCCc1nc(-c2ccc(O)cc2)cn1-c1ccc(Oc2ccc(Cl)cc2)cc1` [Metabolite M3, 4-{2-butyl-1-[4-(4-chloro-phenoxy)-phenyl]-1H-imidazol-4-yl}-phenol], the Kd worked out at 257 nM.
Take `CCCCc1nc(-c2ccc(OCCC(=O)O)cc2)cn1-c1ccc(Oc2ccc(Cl)cc2)cc1` [Metabolite M1, 3-(4-{2-Butyl-1-[4-(4-chloro-phenoxy)-phenyl]-1H-imidazol-4-yl}-phenoxy)-propionic acid]: the Kd was determined as 219 nM.
Turning to `CCCCc1nc(-c2ccc(OCCCO)cc2)cn1-c1ccc(Oc2ccc(Cl)cc2)cc1` [Metabolite M7, 3-(4-{2-Butyl-1-[4-(4-chloro-phenoxy)-phenyl]-1H-imidazol-4-yl}-phenoxy)-propan-1-ol], the dissociation constant Kd is 99.8 nM.
As for `CCCCc1nc(-c2ccc(OCCCN(CC)CC)cc2)cn1-c1ccc(Oc2ccc(Cl)c(O)c2)cc1` [Metabolite M6, 5-[4-[2-butyl-4-[4-[3-(diethylamino)propoxy]phenyl]imidazol-1-yl]phenoxy]-2-chloro-phenol], the figure is 9.8 nM; as for `CCCCc1nc(-c2ccc(OCCCN(CC)CC)cc2)cn1-c1ccc(Oc2ccc(Cl)cc2O)cc1` [Metabolite M5, 2-[4-[2-butyl-4-[4-[3-(diethylamino)propoxy]phenyl]imidazol-1-yl]phenoxy]-5-chloro-phenol], 9.7 nM.

Usually Kd stands for the free concentration of one partner at which half of the binding sites on the other are occupied at equilibrium, for simple one-to-one binding.
